US6251605A, “Yeast cells having mutations in Cav1 and uses therefor” (priority 1999, dated 2001)

Target: T1, Ste2 receptor (Saccharomyces cerevisiae, UniProt D6VTK4)
T1 construct: The wild type strain and a cav1 mutant strain, transformed with the plasmid; endogenous in cells; host or cells: S. cerevisiae wild type and cav1 mutant strains carrying the FUS1-lacZ reporter plasmid
Test: FUS1-lacZ β-galactosidase reporter assay, Ste2-mediated signaling
Assay type: cell-based, S. cerevisiae
Details: 30 minutes incubation
Description: In order to determine whether the CAV1 gene is involved in Ste2-mediated signaling, the effects of a cav1 mutation on the levels of FUS1-lacZ induction in response to o-factor were studied as described below. Transformants were grown to the mid-exponential phase in the medium SC without uracil. 100 μt aliquots of cultures were incubated in 96-well plates in the presence of increasing concentrations of α-factor at 30° C. for 30 minutes prior to assaying β-galactosidase activity. 20 μl of 6X Z-buffer (0.6 M sodium phosphate, pH 7.0, 60 mM KCl, 6 mM MgCl2, 1.6% (v/v) β-mercaptoethanol) containing 10 mM chlorophenolred-β-D-galactoside (CPRG) and 2.5% Triton X-100 was added to each aliquot followed by incubation at room temperature for 30-60 min. The enzymatic reactions were stopped by adding […] of 1 M sodium carbonate and A575 values were determined using a Biomek Plate Reader (Beckman).
The wild type strain and a cav1 mutant strain, transformed with the plasmid Cpl 584 encoding the FUS 1-lacZ reporter gene, were incubated in the presence of α-factor for 30 minutes prior to the β-galactosidase assay. […] Furthermore, the rate of ligand-independent endocytosis of Ste2 receptor, and of Ste3 receptor, respectively, decreased by approximately two-fold in the cav1 mutant. Therefore, an increase in Ste2β mediated signaling may be attributed to the reduced internalization of yeast GPCRs.

T1 sequence (D6VTK4 whole entry): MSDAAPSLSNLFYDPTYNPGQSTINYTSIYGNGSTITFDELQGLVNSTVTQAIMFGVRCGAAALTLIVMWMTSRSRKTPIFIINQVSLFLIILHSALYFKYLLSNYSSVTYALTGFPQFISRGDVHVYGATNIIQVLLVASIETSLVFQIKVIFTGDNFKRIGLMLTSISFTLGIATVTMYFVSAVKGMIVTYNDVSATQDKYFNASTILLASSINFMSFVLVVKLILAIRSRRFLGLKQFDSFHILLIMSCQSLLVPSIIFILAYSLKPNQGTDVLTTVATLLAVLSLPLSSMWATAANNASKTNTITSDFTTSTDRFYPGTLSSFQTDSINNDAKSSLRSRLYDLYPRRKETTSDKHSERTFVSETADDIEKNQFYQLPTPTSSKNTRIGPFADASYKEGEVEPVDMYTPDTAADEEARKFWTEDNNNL

Q: With α-factor as the substance, how does the “higher levels of ligand-induced β-galactosidase activity in mutant strain compared with wild type strain” value (cav1 mutant versus wild type) read?
A: 50-100%

Q: What about the “estimated EC50 values for α-factor” value (wild type strain versus cav1 mutant strain) of the same substance?
A: virtually identical
